Experimental data from PMC10148158, “Mechanism and linkage specificities of the dual retaining β-Kdo glycosyltransferase modules of KpsC from bacterial capsule biosynthesis” (The Journal of Biological Chemistry, 2023).

Target: T1, KpsC-NEc (E. coli KpsC^2-323) (Escherichia coli, UniProt A0A0H2Z2W8)
T1 construct: N-terminal GT module, residues 2-323, His6-tag kept, expressed in E. coli BL21(DE3)
Test: LC-MS of intact protein
Format: biochemical
Details: covalent; Kdo on Asp160; CMP-Kdo made in situ by KdsB; no acceptor

T1 sequence (A0A0H2Z2W8 entry or part of it): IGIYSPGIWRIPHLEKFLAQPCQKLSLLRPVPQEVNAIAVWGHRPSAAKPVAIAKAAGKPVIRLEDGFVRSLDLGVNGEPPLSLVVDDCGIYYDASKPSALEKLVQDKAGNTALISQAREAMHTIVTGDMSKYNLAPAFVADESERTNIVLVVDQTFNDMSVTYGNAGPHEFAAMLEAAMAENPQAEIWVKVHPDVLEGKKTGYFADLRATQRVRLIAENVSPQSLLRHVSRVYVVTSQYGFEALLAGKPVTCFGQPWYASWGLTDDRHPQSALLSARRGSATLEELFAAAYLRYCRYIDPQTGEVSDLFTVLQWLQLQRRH

SMILES: Nc1ccn([C@@H]2O[C@H](COP(=O)(O)O[C@@]3(C(=O)O)C[C@@H](O)[C@@H](O)[C@@H]([C@H](O)CO)O3)[C@@H](O)[C@H]2O)c(=O)n1 [CMP-Kdo]
- Kdo adduct mass increase: The native KpsC-NEc enzyme therefore appears capable of forming covalent Kdo adducts in vitro.
